From paper PMC3653934, “Identification of Adiponectin Receptor Agonist Utilizing a Fluorescence Polarization Based High Throughput Assay” (PLoS ONE, 2013)
Like-named read-outs stand apart in the source and are kept apart here. Where a SMILES comes first, the peptide text is derived from it. [ ]: non-standard residue; d: D form. Nva = CCC[C@H](N)C(=O)O

Tests used:
MDA-MB-231 cells = assay: Cell viability assay (CellTiter-Blue) in MDA-MB-231 cells; assay type: cell-based; details: Homo sapiens, read-out: IC50 (µM) MDA-MB-231 cells, cell viability
Description: (§1) All cell lines were obtained from the American Type Culture Collection (ATCC). MCF-7 and MDA-MB-231 cells were maintained in DMEM containing 10% fetal bovine serum and supplied with 1% penicillin/streptomycin. All cells were maintained in a 5% CO2 atmosphere at 37°C.
(§2) The effects of the lead compounds on cell proliferation were tested in MCF-7 and MDA-MB-231 cells. Cells were grown to 80% confluence, harvested and aliquoted into 384-well plates in a total volume of 45 µl per well. The outer wells were inoculated with sterile water to minimize evaporation from the sample wells. Cells were allowed to attach overnight and 5 µl culture media containing either vehicles or drug were added. Cell proliferation was evaluated using CellTilter-Blue reagent (Promega, China) according to manufacturer’s instructions after 72-h incubation. Fluorescence was measured with an excitation at 530 nm and emission at 590 nm. After background subtraction, cell viability values were normalized to vehicle controls and expressed as percentage of the mean of the relative vehicle controls.
(§3) To further confirm the agonistic activity of hit compounds, MDA-MB-231 and MCF-7 cells were treated with different concentrations of g-Ad or drug (20 µM to 1.2 nM) for 72 hours and cell viability was measured. Thus, four compounds (arctiin, (-)-arctigenin, matairesinol and gramine) that show agonistic activity against adiponectin receptor 1 and four compounds (deoxyschizandrin, taxifoliol, syringing and parthenolide) that show agonistic activity against adiponectin receptor 2 were identified.

[1] = test system: PPARα phosphorylation (AdipoR2 signaling) in MCF-7 cells; assay: Western blot of PPARα phosphorylation in MCF-7 cells; assay type: cell-based, human; details: MCF-7 cells treated at IC50 concentration for 6 h
Description: (§4) Cells were grown to 80% confluence, harvested and aliquoted into 100 mm dishes in serum free media. Cells were allowed to attach overnight and then the serum free media was removed and then cells were washed in PBS twice. Different doses of compounds were prepared in the normal media and added to different dishes for an additional 6 h. Cells were washed 3 times with ice-cold PBS and cell lysates were prepared by scraping cells into lysis buffer A (RIPA buffer, 2 mM dithiothreitol […], 1×Halt protease inhibitor cocktail (Thermo scientific), and 1×Halt phosphatase inhibitor cocktail (Thermo scientific)). The cells were allowed to swell on ice (5 min), after which the homogenate was centrifuged. The supernatants were transferred to fresh tubes and protein concentrations were determined using the Bio-Rad protein assay (Bio-Rad Laboratories, Inc.) per manufacturer’s instructions. Aliquots of the cell lysates were stored at −80°C.
(§5) Equal amounts of total protein (50 µg) were subjected to electrophoresis (10% tris-HCl, 1.0 mm gels) and transferred to nitrocellulose membranes. Membranes were blocked in TBS containing 0.05% Tween 20 (TBST) and 5% nonfat milk or 5% BSA for 1 hour at room temperature. Appropriately diluted primary antibodies were incubated in TBST/5% nonfat milk or TBST/5% BSA for 2 h at room temperature or overnight at 4 °C. Membranes were washed in TBST three times for 15 min each. Appropriately diluted secondary antibodies were incubated in superblock blocking buffers (Thermo Scientific) for 1 h at room temperature. Membranes were washed in TBST three times for 15 min. Proteins were detected by Amersham™ ECL plus western blotting detection system (GE healthcare). The following antibodies were used: anti-AdipoR1 M18, anti-AdipoR2 C12 (Santa Cruz Biotechnology, Santa Cruz, CA), anti-p-AMPKα(T172), anti-AMPKα, and anti-β-actin (Cell Signaling, Danvers, MA).
(§6) It is well established that adiponectin activates AMPK and p38 MAPK through AdipoR1 or PPARα through AdipoR2 to mediate its downstream signaling cascades, [9], [12], [14]. […] The levels of phosphorylation of AMPK and phosphorylation of PPARα were examined and the relative expression levels of the phospho-protein to the total expression of protein levels were quantified using ImageJ software (NIH) ( Fig. 3 ).
(§7) Figure 3 Effects of hit compounds on adiponectin receptor signaling pathways. […] A total 50 µg of cell lysate was loaded to each lane. Western blot was performed follow the protocol in materials and methods section.

MCF-7 cells = assay: Cell viability assay (CellTiter-Blue) in MCF-7 cells; assay type: cell-based; details: Homo sapiens, read-out: IC50 (µM) MCF-7 cells, cell viability
Description: as §1, §2, §3

[2] = test system: AMPK phosphorylation (AdipoR1 signaling) in MDA-MB-231 cells; assay: Western blot of AMPK phosphorylation in MDA-MB-231 cells; assay type: cell-based, human; details: MDA-MB-231 cells treated at IC50 concentration for 6 h
Description: as §4, §5, §6, §7

AdipoR1 = target: T1, AdipoR1 (Homo sapiens, UniProt Q96A54); assay: Competitive FP assay, displacement of probe 1 from AdipoR1; assay type: binding
T1 construct: The cDNAs encoding full-length of AdipoR1 or AdipoR2 were then sub-cloned into the mammalian expression vector pBEX and pcDNA3.1–Myc-His(+); His (C); Myc (C); made in house; host or cells: CHO cells
T1 sequence (Q96A54 1-375): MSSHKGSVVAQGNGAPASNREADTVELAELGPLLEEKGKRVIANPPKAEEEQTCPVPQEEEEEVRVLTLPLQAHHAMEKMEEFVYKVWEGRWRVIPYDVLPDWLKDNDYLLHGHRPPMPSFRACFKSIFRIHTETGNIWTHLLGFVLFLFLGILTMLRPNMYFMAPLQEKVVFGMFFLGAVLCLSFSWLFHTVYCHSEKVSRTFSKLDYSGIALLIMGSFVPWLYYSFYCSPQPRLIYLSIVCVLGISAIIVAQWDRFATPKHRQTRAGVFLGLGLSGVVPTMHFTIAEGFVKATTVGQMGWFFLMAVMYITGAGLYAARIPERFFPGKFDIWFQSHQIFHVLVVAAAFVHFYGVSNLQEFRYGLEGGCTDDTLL
Description: (§8) Unlabeled short peptide 3 was titrated against the FITC-labeled peptide and adiponectin receptor mixture. Plates were incubated at room temperature for up to 3 hours or 30 min at different temperatures. FP values were taken and IC50 values were calculated.
(§9) Master mixtures containing fluorescein-labeled probe 1 and adiponectin receptor (AdipoR1 or AdiopR2, 2 µM and probe 1 at 100 nM) in a reaction volume of 19 µl were prepared and loaded to plates. The library compounds (10 µM –0.078 µM, half dilutions) were prepared separately and transferred into the assay plates. The first and last columns of each plate were used as positive and negative control wells. Wells containing the drug only were used as controls to detect auto-fluorescence of the compounds in the total fluorescence assay. After subtraction of the background signal, data was processed and the IC50 values were determined by non-linear least square fitting using SigmaPlot 11.0.
(§10) Given that the present study is a screening study, peptide 3 was chosen as the positive control for cost-efficiency purposes.
(§11) To optimize the FP assay properly, it was necessary to assess the stability of the FP assay. The conditions for the FP assay were established by testing various parameters including incubation temperature, time, TF values, ΔmP values, and DMSO tolerance. […] In summary, the competitive FP binding assay conditions ideal for identifying adiponectin receptor agonists are: i) 2 µM adiponectin receptor, ii) 100 nM probe 1, iii) 5% final DMSO concentration (v/v), and iv) incubation for 30 min at 25°C before reading the plate.
(§12) A pilot screen against the natural product library of 10,000 compounds described above was performed at screening concentrations of 10 µM to 0.078 µM (half serial dilutions) in 5% DMSO (v/v). Controls present in each assay plate consisted of 5% DMSO (negative control) or peptide 3 (positive control).
(§13) We screened a library of 10,000 natural compounds for adiponectin agonists. […] 46 compounds that could generate IC50 curves were identified as initial hits.

AdipoR2 = target: T2, AdipoR2 (UniProt Q86V24); assay: Competitive FP assay, displacement of probe 1 from AdipoR2; assay type: binding, human
T2 sequence (Q86V24 1-386): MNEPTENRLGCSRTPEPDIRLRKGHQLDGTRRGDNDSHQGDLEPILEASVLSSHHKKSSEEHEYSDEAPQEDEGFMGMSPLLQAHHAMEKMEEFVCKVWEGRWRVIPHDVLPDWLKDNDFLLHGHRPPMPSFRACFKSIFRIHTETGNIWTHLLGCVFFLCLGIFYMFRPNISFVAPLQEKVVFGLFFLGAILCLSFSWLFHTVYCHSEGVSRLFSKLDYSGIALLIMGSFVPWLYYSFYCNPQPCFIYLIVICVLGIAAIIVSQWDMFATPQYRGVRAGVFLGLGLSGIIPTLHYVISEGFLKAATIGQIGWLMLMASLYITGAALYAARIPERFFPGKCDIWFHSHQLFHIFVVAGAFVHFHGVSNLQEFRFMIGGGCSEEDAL
Description: as §8, §9, §10, §11, §12, §13

[3] = primary screen, 2 µM receptor, 100 nM probe 1, 30 min, 25°C, read-out: IC50 vs AdipoR1 (µM) Primary screen
[4] = validation, 2 µM receptor, 100 nM probe 1, 30 min, 25°C, read-out: IC50 vs AdipoR1 (µM) Validated
[5] = primary screen, 2 µM receptor, 100 nM probe 1, 30 min, 25°C, read-out: IC50 vs AdipoR2 (µM) Primary screen
[6] = validation, 2 µM receptor, 100 nM probe 1, 30 min, 25°C, read-out: IC50 vs AdipoR2 (µM) Validated

`O=C1c2c(O)cc(O)cc2O[C@H](c2ccc(O)c(O)c2)[C@H]1O` [Compound 6, Taxifoliol] was tested, and the IC50 (MDA-MB-231 cells; MDA-MB-231, 72 h, 20 µM to 1.2 nM) was over 10 µM, the “Effect on PPARα phosphorylation level” value [1] was “increased” and the IC50 (MCF-7 cells; MCF7, 72 h, 20 µM to 1.2 nM) was 4.4 ± 0.5 µM. For the same molecule, the “Effect on AMPK phosphorylation” value [2] was “decreased”.

`O=c1cc(-c2ccccc2)oc2cc(O)cc(O)c12` [Compound 8, Chrysin] was tested, and the IC50 (AdipoR1; [3]) was over 5 µM, the IC50 (AdipoR1; [4]) was over 5 µM and the IC50 (AdipoR2; read-out: IC50 vs AdipoR2 (µM) Primary screen, primary screen, 2 µM receptor, 100 nM probe 1, 30 min, 25°C) was 4.9 µM. The IC50 (AdipoR2; read-out: IC50 vs AdipoR2 (µM) Validated, validation, 2 µM receptor, 100 nM probe 1, 30 min, 25°C) was over 5 µM and the “IC50 vs AdipoR2 (µM) Validated” value (AdipoR2; validation, 2 µM receptor, 100 nM probe 1, 30 min, 25°C) was “failed in the validation”.

Work on `COc1cc(/C=C/CO)cc(OC)c1O[C@@H]1O[C@H](CO)[C@@H](O)[C@H](O)[C@H]1O` [Compound 5, Syringin] yielded an IC50 (MDA-MB-231 cells; MDA-MB-231, 72 h) of over 10 µM, an IC50 (AdipoR1) of over 5 µM and an IC50 (AdipoR1; read-out: IC50 vs AdipoR1 (µM) Validated, validation, 2 µM receptor, 100 nM probe 1, 30 min, 25°C) of over 5 µM. For the same molecule, the IC50 (AdipoR2; [5]) was 4.6 µM, the IC50 (AdipoR2; [6]) was 4.5 ± 0.5 µM and the “Effect on PPARα phosphorylation level” value [1] was “increased”. The IC50 (MCF-7 cells; MCF7, 72 h) was 6.8 ± 0.8 µM and the “Effect on AMPK phosphorylation” value [2] was “decreased”.

Molecule `COc1cc(C[C@H]2C(=O)OC[C@@H]2Cc2ccc(OC)c(OC)c2)ccc1O` [Compound 2, (-)-Arctigenin] has an IC50 (MDA-MB-231 cells; MDA-MB-231, 72 h) of 4.5 ± 0.4 µM, an IC50 (AdipoR1; [3]) of 2.6 µM and an IC50 (AdipoR1; [4]) of 2.2 ± 0.8 µM. The IC50 (AdipoR2; [5]) was over 5 µM, the IC50 (AdipoR2; [6]) was over 5 µM and the “Effect on PPARα phosphorylation level” value [1] was “inhibited”. The IC50 (MCF-7 cells; MCF7, 72 h) was over 10 µM and the “Effect on AMPK phosphorylation” value [2] was “elevated”.

Work on `CCC[C@H](NC(=O)[C@@H]1CCCN1C(=O)[C@@H](NC(=O)[C@H](N)CC(N)=O)[C@@H](C)CC)C(=O)N[C@@H](CC(C)C)C(=O)N[C@@H](Cc1ccc(O)cc1)C(=O)N[C@H](CO)C(=O)N[C@@H](Cc1ccccc1)C(=O)N[C@@H](C)C(=O)N[C@H](CO)C(N)=O` [Peptide 3, H-DAsn-Ile-Pro-Nva-Leu-Tyr-DSer-Phe-Ala-DSer-NH2, reference compound] (H-[dN]IP[Nva]LY[dS]FA[dS]-NH2) yielded an IC50 (AdipoR2; positive control validation, titrated against probe 1 – AdipoR2 mixture, read-out: IC50 against AdipoR2, competition with probe 1) of 2.46 ± 0.25 µM.

B1: g-Ad: recombinant carboxyl-terminal globular domain of adiponectin with C-terminal His-tag, produced in BL21(DE3) cells; positive control (protein)
chain: GEGAYVYRSAFSVGLETYVTIPNMPIRFTKIFYNQQNHYDGSTGKFHCNIPGLYYFAYHITVYMKDVKVSLFKKDKAMLFTYDQYQENNVDQASGSVLLHLEVGDQVWLQVYGEGERNGLYADNDNDSTFTGFLLYHDTN
modifications: C-terminal His-tag left out
With B1 the IC50 (AdipoR1; positive control validation, titrated against probe 1 – AdipoR1 mixture, read-out: IC50 against AdipoR1, competition with probe 1) was 3.4 ± 0.7 µM.
